Results reported in US20020119958A1, “Therapeutic agent for hyperlipidemia” (priority 2001, published 2002).

What was measured:
[1] = system: I-BABP gene expression in Caco-2 cells; test: I-BABP mRNA in Caco-2 cells by Northern blot; type: cell-based, human; settings: 100 μM CDCA, compound A at 10 μM
Method: The human colon carcinoma derived cell line, Caco-2, is a cell line differentiated like the small intestine and expresses the I-BABP gene. The I-BABP gene expression in Caco-2 cells is promoted by CDCA and an expression control system of I-BABP gene by FXR is considered to be also present in Caco-2 cells (Makishima, M. et al. Science 284, 1362-5 (1999)). Thus, an action on the I-BABP gene expression of compound A as an FXR antagonist was tested using Caco-2 cells.
The Caco-2 cells were cultured in the presence of 100 μM CDCA, and the expression of I-BABP gene was induced. Thereto was added compound A and changes in the I-BABP gene expression level were examined by measuring the amount of I-BABP mRNA by Northern blot analysis.

I-BABP gene = test: Northern blot of I-BABP gene expression in hamster ileum; type: in vivo; settings: 14 days
Method: (§1) Male Syrian Golden Hamsters (7 weeks old) were purchased from Japan SLC and preliminarily reared for 2 weeks under a high fat diet load (10% coconut oil, 0.12% cholesterol). After the preliminary rearing, the high fat diet was fed to the hamsters while administering compound A. The drug was prepared into a 0.5% methylcellulose suspension, and forcibly administered orally at 30 or 100 mg/kg/day for 14 consecutive days. At 4, 7, 11 and 14 days from the drug administration, blood was drawn from the orbital vein of the animal and total serum cholesterol value was measured. As a control, a drug non-administration group was prepared and treated similarly, which was followed by measurement of the serum total cholesterol value. At the final day of the test, the liver and the ileum were removed from the animals, from which the total RNA was prepared.
(§2) The total RNA was prepared from animal tissues by AGPC method. The prepared total RNA was electrophoresed on an agarose gel containing 6% formaldehyde and transferred onto a nylon membrane by a capillary blotting method. This membrane was hybridized with ^32P-labeled hamster CYP7A or I-BABP probe in 50% formamide at 42° C. for 16 h and the amounts of CYP7A and I-BABP gene expressions were measured. The CYP7A and I-BABP probes were prepared by RT-PCR method from RNA derived from the liver and the ileum, respectively, of the hamsters.

CYP7A gene = test: Northern blot of CYP7A gene expression in hamster liver; type: in vivo; settings: 14 days
Method: as §1, §2

HepG2 cells = test: Excretion of bile acid from HepG2 cells; type: cell-based, human; settings: compound A 1, 10 μM, 24 h
Method: The cultured HepG2 cells were plated in a 24-well culture dish at 1.5×10^5 cells/ml, 0.5 ml/well. Four days later, the medium was exchanged to a new one and ^14C-labeled cholesterol (18.5 kBq/well) was added, which was cultured for 24 h (bile acid in the cells was labeled thereby). After the culture, the medium was exchanged to a new one and compound A (final concentration 1, 10 μM) was added. After 24 hours of culture, the medium was recovered and the amount of bile acid excreted into the medium was measured to examine the influence of compound A on bile acid excretion. The amount of excreted bile acid was corrected based on the protein amount of the cell.

[2] = biological target: T1, FXR ligand binding domain (FXR-LBD) (Homo sapiens, UniProt Q96RI1); test: FRET assay of CDCA-induced binding of FXR-LBD to coactivator SRC-1; type: biochemical; settings: in the presence of CDCA; compound A 1-50 μM; 4° C., 12 h
T1 construct: GST
T1 sequence (Q96RI1 262-486 limits assumed): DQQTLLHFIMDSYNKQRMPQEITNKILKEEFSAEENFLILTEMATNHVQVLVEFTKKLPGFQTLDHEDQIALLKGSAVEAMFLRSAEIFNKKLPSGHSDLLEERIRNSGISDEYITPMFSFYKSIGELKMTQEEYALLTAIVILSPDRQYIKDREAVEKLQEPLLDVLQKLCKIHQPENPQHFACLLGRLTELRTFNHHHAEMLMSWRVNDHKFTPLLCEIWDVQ
Method: (§3) An Eu-labeled FXR ligand binding domain (FXR-LBD) and an APC-labeled coactivator SRC-1 were mixed to the final concentration of 10 nM and 100 nM, respectively, in a buffer [100 mM Hepes (pH 7.6), 0.125% CHAPS, 125 mM NaF] in the presence of ligand CDCA. Thereto were added various concentrations of compound A (1-50 μM), and the mixture was allowed to react at 4° C. for 12 h. After the reaction, it was exposed to an excitation light at 337 nm and the fluorescence at 665 nm and 620 nm was measured, based on which the fluorescence ratio of 665 nm/620 nm was taken as an FRET fluorescence intensity.

LXR = test: Luciferase reporter gene transcription via LXR (test for comparison); type: cell-based; settings: up to the concentration of 10 μM
Method: (§4) A plasmid for compulsory expression of FXR, a luciferase reporter plasmid and a β-galactosidase expression plasmid for correction of gene transfer were introduced into cultured mammalian cells (293 or CV-1) by conventional methods. The cells after gene transfer were treated with CDCA and compound A. Cell lysates were prepared from the cells that underwent treatment with various concentrations of compound A (0.1-10 μM), and a luciferase activity (corrected based on β-galactosidase activity) in the cell lysate was expressed as an FXR dependent transcriptional activity. In the absence of a drug, the luciferase activity value upon activation with CDCA was taken as 100% and the value in the absence of a ligand was taken as 0%. For a test for comparison, a similar experiment was conducted using an LXR expression plasmid instead of the FXR expression plasmid.

[3] = system: CYP7A gene expression in HepG2 cells; test: CYP7A mRNA in HepG2 cells by quantitative RT-PCR; type: cell-based, human; settings: CDCA 20 μM + compound A 10 μM, 37° C., 16 h
Method: (§5) The cultured HepG2 cells were treated under the following three conditions at 37° C. for 16 h.
(§6) 1) no treatment with CDCA, no treatment with compound A
(§7) 2) treatment with CDCA (20 μM), no treatment with compound A
3) treatment with CDCA (20 μM), treatment with compound A (10 μM)
RNA was prepared from the cells after the treatment and the amount of CYP7A mRNA contained in the RNA was measured by quantitative RT-PCR. For the quantitative RT-PCR, TaqMan One Step Gold reverse transcriptase PCR kit of Applied Biosystems/PerkinElmer was used. For quantification, the following primers (i)-(iii) derived from human CYP7A gene sequence were used.

[4] = Concentration in blood after single oral administration to hamster; type: in vivo; settings: male, GS, single oral 100 mg/kg, serum
Method: The compound A was forcibly given to hamster by single oral administration and measured for shifts in the concentration in blood. The test conditions were as follows. animal: male GS hamster (purchased from Japan SLC), 9 weeks old administration liquid: 20 mg/ml 0.5% methylcellulose suspension diet: not fasted dose: 100 mg/5 ml/kg (p.o.) administration: forcible single oral administration using oral sound blood sampling time: 5, 15, 30, 60, 180, 360 min after administration serum preparation: blood was drawn from the orbital vein and centrifuged using a Separapid tube (coagulation promoting spitz tube containing serum separating agent) to give serum.
An internal standard substance (CV-5386, 0.1 μg) was added to serum (0.1 ml) and admixed. Methanol (0.3 ml) was added and the mixture was stirred. The mixture was centrifuged at 10,000 rpm (FORCE-7 Denver Instrument Company) for 2 min and the resulting supernatant was subjected to centrifugal filtration using Centricut. The obtained filtrate was analyzed by LC-ESI-MS/MS.

[5] = Serum total cholesterol in hamsters on high fat diet; type: in vivo, hamster; settings: 14 days, last day of the test
Method: as §1
The blood was drawn from the orbital vein of the animals and centrifuged (3000 rpm, 15 min) to prepare the serum. The total cholesterol concentration of the serum was determined by the enzyme method.

[6] = system: LXR (liver X receptor) ligand binding domain (LXR-LBD); test: FRET assay with LXR-LBD instead of FXR-LBD (test for comparison); type: biochemical; settings: up to 50 μM
Method: as §3
At a concentration of not less than 1 μM, compound A inhibited the binding between FXR-LBD and SRC-1 induced in the presence of CDCA (attenuation of FRET fluorescent intensity). For a test for comparison, a similar experiment was conducted using LXR (liver X receptor) ligand binding domain (LXR-LBD) instead of FXR-LBD.

FXR = biological target: T2, FXR (Homo sapiens, UniProt Q96RI1); test: CDCA-induced luciferase reporter gene transcription via FXR; type: cell-based; settings: 293 or CV-1 cells treated with CDCA; compound A 0.1-10 μM
T2 construct: expressed in transfected cells; host or cells: 293 or CV-1
T2 sequence (Q96RI1 1-486): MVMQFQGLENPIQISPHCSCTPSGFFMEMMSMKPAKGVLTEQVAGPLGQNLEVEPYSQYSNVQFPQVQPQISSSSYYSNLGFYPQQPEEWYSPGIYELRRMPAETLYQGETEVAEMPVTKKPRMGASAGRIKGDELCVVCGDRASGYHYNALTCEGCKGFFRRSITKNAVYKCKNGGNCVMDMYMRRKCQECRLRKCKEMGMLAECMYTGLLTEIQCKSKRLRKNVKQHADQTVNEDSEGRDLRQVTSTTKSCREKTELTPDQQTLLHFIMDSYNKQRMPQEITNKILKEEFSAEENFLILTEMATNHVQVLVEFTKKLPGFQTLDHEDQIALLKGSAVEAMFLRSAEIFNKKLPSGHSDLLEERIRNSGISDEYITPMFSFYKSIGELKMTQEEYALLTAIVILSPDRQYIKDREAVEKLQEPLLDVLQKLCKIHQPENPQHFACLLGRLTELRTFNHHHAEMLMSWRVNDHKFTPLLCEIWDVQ
Method: as §4

[7] = system: CYP7A protein in HepG2 cells; test: CYP7A protein in HepG2 cells by Western blot; type: cell-based, human; settings: CDCA 20 μM, compound A 0.03-10 μM, 16 h
Method: as §5, §6, §7
3) treatment with CDCA (20 μM), treatment with compound A (0.03, 0.1, 0.3, 1, 3, 10 μM)
After the treatment, the cells were recovered and lysed in a lysis buffer (125 mM Tris HCl (pH 8.0), 2 mM CaCl2, 2% Triton X-100) to prepare a cell lysate. The cell lysate was fractionated by SDS-PAGE, and the protein was transferred onto a PVDF membrane. The CYP7A protein was detected by Western blot analysis using an anti CYP7A antibody and an HRP (horse-radish peroxidase) conjugated 2nd antibody.

concentration at which the binding between FXR-LBD and SRC-1 was inhibited (attenuation of FRET fluorescent intensity) [2]: not less than 1 μM | amount of CYP7A mRNA (no CDCA = 100, 20 μM CDCA = 0) [3]: 58 | Cmax [4]: 2010 ng/mL | Tmax [4]: 6 h | effect on FRET fluorescent intensity with LXR-LBD [6]: did not affect the fluorescent intensity | concentration at which FXR dependent transcription was repressed (FXR): not less than 1 μM | CYP7A protein (Western blot) [7]: Accumulation of CYP7A protein
Compound: CC(C)(C)c1cc(C(C)(C)C)c(O)c(NC(=O)c2ccccc2)c1O [compound A, N-(3,5-di-tert-butyl-2,6-dihydroxyphenyl)benzamide]
mRNA level of I-BABP (Northern blot) [1]: marked decrease | decrease in mRNA level of the I-BABP gene in the ileum relative to the drug non-administration group (I-BABP gene; 30 mg/kg/day p.o.): 11% | decrease in mRNA level of the I-BABP gene in the ileum relative to the drug non-administration group (I-BABP gene; 100 mg/kg/day p.o.): 16% | increase in mRNA level of the CYP7A gene in the liver relative to the drug non-administration group (CYP7A gene; 30 mg/kg/day p.o.): 53% | increase in mRNA level of the CYP7A gene in the liver relative to the drug non-administration group (CYP7A gene; 100 mg/kg/day p.o.): 27% | excretion of bile acid into the medium (HepG2 cells): promoted the excretion of bile acid | effect on transcription activity dependent on LXR (LXR): did not influence the transcription activity | percent decrease in serum total cholesterol relative to the drug non-administration group ([5]; 30 mg/kg/day p.o.): 28% | percent decrease in serum total cholesterol relative to the drug non-administration group ([5]; 100 mg/kg/day p.o.): 32%
